Molecular target: T1, His-hMAGL (recombinant polyhistidine tagged human MAGL protein) (Homo sapiens, UniProt Q99685)
T1 construct: made in house; host or cells: E. coli BL21(DE3)
T1 sequence (Q99685 1-303): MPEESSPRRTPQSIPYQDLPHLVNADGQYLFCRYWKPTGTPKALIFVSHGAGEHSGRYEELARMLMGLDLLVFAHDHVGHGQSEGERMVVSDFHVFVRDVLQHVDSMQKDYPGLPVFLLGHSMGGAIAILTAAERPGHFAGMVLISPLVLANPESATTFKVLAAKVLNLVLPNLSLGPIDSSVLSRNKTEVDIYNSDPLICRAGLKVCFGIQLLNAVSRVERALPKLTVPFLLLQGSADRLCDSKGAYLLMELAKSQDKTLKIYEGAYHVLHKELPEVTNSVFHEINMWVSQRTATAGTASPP
Test: Measurement of MAGL inhibitory activity (arachidonic acid production from 2-arachidonylglycerol, RapidFire-mass spectrometry)
Format: biochemical
Conditions: MAGL inhibitory rate, test compound 10 μM, 60 min preincubation, 2-arachidonylglycerol substrate
Summary of the method: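 Arachidonic acid formed was quantified by online solid-phase extraction and triple-quadrupole MS in negative SRM mode against a d8 internal standard. Reaction: recombinant His-hMAGL (7.5 ng/mL, pH 7.5 Tris buffer with Triton X-100 and BSA) plus 2-AG (5 μL of 150 μM stock) for 10 min at room temperature, quenched with 2% formic acid. Percent inhibition corrected for enzyme-free background.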

SMILES	inhibition at 10 µM
O=C1CCC2(CN(C(=O)c3cc4ccc(C(F)(F)F)cc4s3)C2)N1 [Example 30, 2-((6-(trifluoromethyl)-1-benzothiophen-2-yl)carbonyl)-2,5-diazaspiro[3.4]octan-6-one]	94%
O=C1CCC2(CN(C(=O)c3sc4cc(-c5cccc(F)c5F)ccc4c3Cl)C2)N1 [Example 215, 2-((3-chloro-6-(2,3-difluorophenyl)-1-benzothiophen-2-yl)carbonyl)-2,5-diazaspiro[3.4]octan-6-one]	99%
O=C1CCC2(CN(C(=O)N3CCC(C(F)(F)c4ccc(F)cc4)CC3)C2)N1 [Example 29, 2-((4-(difluoro(4-fluorophenyl)methyl)piperidin-1-yl)carbonyl)-2,5-diazaspiro[3.4]octan-6-one]	98%
O=C1CCC2(CN(C(=O)c3sc4cc(-c5ccccc5Cl)ccc4c3Cl)C2)N1 [Example 192, 2-((3-chloro-6-(2-chlorophenyl)-1-benzothiophen-2-yl)carbonyl)-2,5-diazaspiro[3.4]octan-6-one]	100%
Cc1cc(-c2ccccc2)sc1C(=O)N1CC2(CCC(=O)N2)C1 [Example 129, 2-((3-methyl-5-phenyl-2-thienyl)carbonyl)-2,5-diazaspiro[3.4]octan-6-one]	89%
O=C1CCC2(CN(C(=O)c3ccc(-c4cc(F)ccc4Cl)cc3)C2)N1 [Example 79, 2-((2′-chloro-5′-fluorobiphenyl-4-yl)carbonyl)-2,5-diazaspiro[3.4]octan-6-one]	92%
Cc1ccc(-c2ccc(C(=O)N3CC4(CCC(=O)N4)C3)cc2)c(Cl)c1 [Example 83, 2-((2′-chloro-4′-methylbiphenyl-4-yl)carbonyl)-2,5-diazaspiro[3.4]octan-6-one]	96%
O=C1CCC2(CN(C(=O)N3CC(OCc4ccc(C(F)(F)F)cc4F)C3)C2)N1 [Example 9, 2-((3-((2-fluoro-4-(trifluoromethyl)benzyl)oxy)azetidin-1-yl)carbonyl)-2,5-diazaspiro[3.4]octan-6-one]	98%
O=C1CCC2(CN(C(=O)c3sc4cc(-c5ccc(C(F)F)cc5)ccc4c3Cl)C2)N1 [Example 219, 2-((3-chloro-6-(4-(difluoromethyl)phenyl)-1-benzothiophen-2-yl)carbonyl)-2,5-diazaspiro[3.4]octan-6-one]	94%
O=C1CCC2(CN(C(=O)N3CCC(Cc4ccc(C(F)(F)F)cc4)CC3)C2)N1 [Example 106, 2-((4-(4-(trifluoromethyl)benzyl)piperidin-1-yl)carbonyl)-2,5-diazaspiro[3.4]octan-6-one]	101%
COc1cc(-c2ccccc2)ccc1C(=O)N1CC2(CCC(=O)N2)C1 [Example 43, 2-((3-methoxybiphenyl-4-yl)carbonyl)-2,5-diazaspiro[3,4]octan-6-one]	87%
O=C1CCC2(CN(C(=O)c3cccc(C(F)(F)c4ccccc4)c3)C2)N1 [Example 27, 2-(3-(difluoro(phenyl)methyl)benzoyl)-2,5-diazaspiro[3.4]octan-6-one]	94%
Cc1cccc(-c2ccc3c(Cl)c(C(=O)N4CC5(CCC(=O)N5)C4)sc3c2)c1F [Example 208, 2-((3-chloro-6-(2-fluoro-3-methylphenyl)-1-benzothiophen-2-yl)carbonyl)-2,5-diazaspiro[3.4]octan-6-one]	100%
Cc1c(C(=O)N2CC3(CCC(=O)N3)C2)sc2cccc(F)c12 [Example 142, 2-((4-fluoro-3-methyl-1-benzothiophen-2-yl)carbonyl)-2,5-diazaspiro[3.4]octan-6-one]	96%
Cc1cc(-c2ccc3c(Cl)c(C(=O)N4CC5(CCC(=O)N5)C4)sc3c2)ccc1F [Example 210, 2-((3-chloro-6-(4-fluoro-3-methylphenyl)-1-benzothiophen-2-yl)carbonyl)-2,5-diazaspiro[3.4]octan-6-one]	101%

Results, then the compound that gave them:

inhibition at 10 µM	SMILES
100%	O=C1NC2(CO1)CN(C(=O)c1sc3cc(OC(F)(F)F)ccc3c1C(F)(F)F)C2 [Example 261, 2-((6-(trifluoromethoxy)-3-(trifluoromethyl)-1-benzothiophen-2-yl)carbonyl)-7-oxa-2,5-diazaspiro[3.4]octan-6-one]
99%	O=C1NC2(CO1)CN(C(=O)c1ccc(-c3cccc(C4(C(F)(F)F)CC4)c3)cc1)C2 [Example 344, 2-((3′-(1-(trifluoromethyl)cyclopropyl)biphenyl-4-yl)carbonyl)-7-oxa-2,5-diazaspiro[3.4]octan-6-one]
101%	O=C1NC2(CO1)CN(C(=O)c1sc3c(C(F)(F)F)cccc3c1C(F)F)C2 [Example 277, 2-((3-(difluoromethyl)-7-(trifluoromethyl)-1-benzothiophen-2-yl)carbonyl)-7-oxa-2,5-diazaspiro[3.4]octan-6-one]
99%	O=C1NC2(CCO1)CN(C(=O)c1sc3cc(OC(F)(F)F)ccc3c1Cl)C2 [Example 282, 2-((3-chloro-6-(trifluoromethoxy)-1-benzothiophen-2-yl)carbonyl)-7-oxa-2,5-diazaspiro[3.5]nonan-6-one]
101%	O=C1NC2(CO1)CN(C(=O)c1sc3ccc(OC(F)(F)F)cc3c1Cl)C2 [Example 262, 2-((3-chloro-5-(trifluoromethoxy)-1-benzothiophen-2-yl)carbonyl)-7-oxa-2,5-diazaspiro[3.4]octan-6-one]
101%	O=C1NC2(CO1)CN(C(=O)c1sc3cc(C4CC4)cc(F)c3c1C1CC1)C2 [Example 312, 2-((3,6-dichloropropyl-4-fluoro-1-benzothiophen-2-yl)carbonyl)-7-oxa-2,5-diazaspiro[3.4]octan-6-one]
100%	O=C1CCC2(CN(C(=O)c3sc4cc(-c5c(F)cccc5Cl)ccc4c3Cl)C2)N1 [Example 221, 2-((3-chloro-6-(2-chloro-6-fluorophenyl)-1-benzothiophen-2-yl)carbonyl)-2,5-diazaspiro[3.4]octan-6-one]
99%	O=C1CCC2(CN(C(=O)c3sc4ccc(C(F)(F)F)cc4c3Cl)C2)N1 [Example 256, 2-((3-chloro-5-(trifluoromethyl)-1-benzothiophen-2-yl)carbonyl)-2,5-diazaspiro[3.4]octan-6-one]
100%	O=C1NC2(CO1)CN(C(=O)c1sc3cc(OC(F)F)cc(C(F)(F)F)c3c1Cl)C2 [Example 292, 2-((3-chloro-6-(difluoromethoxy)-4-(trifluoromethyl)-1-benzothiophen-2-yl)carbonyl)-7-oxa-2,5-diazaspiro[3.4]octan-6-one]
99%	Cc1ccc(-c2ccc3c(Cl)c(C(=O)N4CC5(CCC(=O)N5)C4)sc3c2)s1 [Example 232, 2-((3-chloro-6-(5-methyl-2-thienyl)-1-benzothiophen-2-yl)carbonyl)-2,5-diazaspiro[3.4]octan-6-one]
101%	O=C1NC2(CO1)CN(C(=O)c1sc3c(C(F)F)c(OC(F)(F)F)ccc3c1Cl)C2 [Example 302, 2-((3-chloro-7-(difluoromethyl)-6-(trifluoromethoxy)-1-benzothiophen-2-yl)carbonyl)-7-oxa-2,5-diazaspiro[3.4]octan-6-one]
99%	O=C1NC2(CO1)CN(C(=O)c1sc3cc(F)ccc3c1Cl)C2 [Example 361, 2-((3-chloro-6-fluoro-1-benzothiophen-2-yl)carbonyl)-7-oxa-2,5-diazaspiro[3.4]octan-6-one]
